Data reported in publication PMC9823097, “Dysregulation of PRMT5 in chronic lymphocytic leukemia promotes progression with high risk of Richter’s transformation” (Nature Communications, 2023).
Values joined by “and” are separate entries in the source; they are usually repeats but may differ in a detail not shown here. Identical values can stand only once. “Also recorded” adds a separate entry of the source. Like-named read-outs stand apart in the source and are kept apart here.

Key:
[1] = Pharmacokinetic study, oral gavage to CD-1 mice, blood analyzed by LC-MS/MS; format: in vivo; conditions: for peak plasma level: WT CD-1 mice; for DNAUC / blood concentration at time point 0.25 / blood concentration at time point 0.5 / blood concentration at time point 1 h / blood concentration at time point 2 h / blood concentration at time point 4 h / blood concentration at time point 8 h / blood concentration at time point 12 h / blood concentration at time point 24 h / AUC / AUC(0-t) / Cmax / MRT / Tmax / half-life: 1d-single dose, male CD-1 mice, fed, blood analysis; for DNAUC / AUC / AUC(0-t) / Cmax / MRT / Tmax / half-life: 0.5%CMC+0.5%Tween80; for AUC / AUC(0-t) / Cmax / MRT / Tmax / half-life: mouse, whole blood, po
Experimental: For in vitro assays, the compound was stored in a 10 mM solution in DMSO. […] […] Blood was collected at various time points after dosing into EDTA-K2 tubes, placed on ice, and stored at −80 °C prior to analysis by LC-MS/MS. For biochemical potency and selectivity, PRT382 was solubilized in 100% DMSO and diluted serially threefold. For assessment of selectivity, enzyme activity against a panel of 37 methyltransferases was evaluated using 3H-SAM as a radioligand probe with filtration binding. PRT382 was tested in duplicate at a final concentration of 10 µM. The percent of enzyme activity relative to DMSO control condition was determined for each enzyme.

[2] = biological target: recombinant human PRMT5/MEP50 (Homo sapiens, UniProt O14744); assay: Filtration binding assay with recombinant human PRMT5/MEP50 (biochemical potency); conditions: histone H2A as the protein substrate
[3] = Pharmacokinetics in dogs (clearance, oral bioavailability); format: in vivo
[4] = Pharmacokinetics in mice (clearance, oral bioavailability, AUC); format: in vivo
primary CLL cells = assay: Proliferation of primary IGHV-U CLL cells, MTS assay, 72 h, with and without CpG; format: cell-based, human; conditions: for Normalized A490: +CpG, individual patients' primary CLL cells, normalized to -CpG dose 0
Text: Our research complies with all relevant ethical regulations. De-identified human CLL cells were isolated as previously described after obtaining informed consent on protocols approved by The Ohio State University Cancer Institutional Review Board in accordance with the Declaration of Helsinki. All patients examined had CLL as defined by the 2008 IWCLL criteria. Sex and age of the patients who provided samples was not available. Human peripheral blood mononuclear cells (PBMC) were isolated from CLL patients using Ficoll density gradient centrifugation. (Ficoll-Paque Plus; Amersham Biosciences Inc, Piscataway, NJ). Enriched B-cell fractions were prepared using the RosetteSep™ B-cell kit (STEMCELL Technologies, Vancouver, Canada) according to the manufacturer’s instructions. Isolated cells were incubated in RPMI 1640 media (Invitrogen, Grand Island, NY) supplemented with 10% heat-inactivated fetal bovine serum (Sigma-Aldrich, St. Louis, MO), 2 mM L-glutamine (Invitrogen), and 100 U/mL penicillin/100 μg/mL streptomycin (Sigma-Aldrich) at 37 °C in an atmosphere of 5% CO2. The purity of enriched populations of CLL was routinely checked using CD19-PE (BD Pharmingen, Billerica, MA) staining by flow cytometry.
(§1) Cell proliferation was assessed via MTS (3-[4,5-dimethylthiazol-2-yl]-5-[3-carboxymethoxyphenyl]-2-[4-sulfophenyl]-2H-tetrazolium) assay (Sigma), using the tetrazolium dye […]. Cell apoptosis was evaluated by Annexin V-FITC or PE and propidium iodide (PI) staining using FC500 cytometer (Beckman-Coulter, Indianapolis, IN) following the manufacturer’s procedure (BD Pharmingen, Billerica, MA)[55]. For cell cycle analysis, cells were fixed with cold ethanol overnight and then stained before analysis with 30 μg/mL propidium iodide (Invitrogen) and 200 μg/mL RNase (Sigma-Aldrich) in 0.1 % v/v Triton X-100 (Sigma-Aldrich). Cell cycle data analysis was performed using ModFit LT software (Verity Software House, Topsham, ME).

[5] = system: leukemia and lymphoma cell lines; assay: Proliferation of a panel of leukemia and B-lymphoma cell lines, 72 h, MTS assay; format: cell-based; conditions: for IC50: CCMCL-1, JVM-2, U-2932, RL, and KARPAS-422, read-out: Anti-proliferative IC50 values, range over cell lines
Experimental: as §1

[6] = Pharmacokinetics in rats (clearance, oral bioavailability); format: in vivo
JVM-2 = assay: Anti-proliferative activity, MTS assay, JVM-2; format: cell-based; conditions: Homo sapiens, DLBCL, read-out: PRT382 IC50 (anti-proliferative)
Experimental: as §1

CCMCL-1 = assay: Anti-proliferative activity, MTS assay, CCMCL-1; format: cell-based; conditions: MCL, read-out: PRT382 IC50 (anti-proliferative)
Experimental: as §1

Sequence of recombinant human PRMT5/MEP50 (O14744 whole entry): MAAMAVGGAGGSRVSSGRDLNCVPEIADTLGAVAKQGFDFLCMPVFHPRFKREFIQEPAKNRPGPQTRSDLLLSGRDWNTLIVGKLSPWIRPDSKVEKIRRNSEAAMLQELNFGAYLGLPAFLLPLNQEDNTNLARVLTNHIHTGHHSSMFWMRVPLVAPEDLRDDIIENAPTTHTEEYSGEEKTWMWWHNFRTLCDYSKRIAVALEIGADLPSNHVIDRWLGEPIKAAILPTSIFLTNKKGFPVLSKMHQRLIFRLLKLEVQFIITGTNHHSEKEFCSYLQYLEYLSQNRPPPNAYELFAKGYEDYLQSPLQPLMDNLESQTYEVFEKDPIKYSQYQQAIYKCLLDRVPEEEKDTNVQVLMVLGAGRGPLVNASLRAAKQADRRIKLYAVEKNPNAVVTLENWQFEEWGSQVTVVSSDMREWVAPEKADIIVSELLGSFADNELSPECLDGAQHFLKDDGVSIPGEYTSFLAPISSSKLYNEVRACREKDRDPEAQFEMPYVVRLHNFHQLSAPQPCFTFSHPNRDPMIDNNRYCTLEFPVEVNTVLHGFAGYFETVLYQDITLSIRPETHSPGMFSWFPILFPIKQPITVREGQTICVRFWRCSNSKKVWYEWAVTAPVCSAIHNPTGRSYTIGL
Sequence of recombinant human PRMT5/MEP50 (Q9BQA1 whole entry partner): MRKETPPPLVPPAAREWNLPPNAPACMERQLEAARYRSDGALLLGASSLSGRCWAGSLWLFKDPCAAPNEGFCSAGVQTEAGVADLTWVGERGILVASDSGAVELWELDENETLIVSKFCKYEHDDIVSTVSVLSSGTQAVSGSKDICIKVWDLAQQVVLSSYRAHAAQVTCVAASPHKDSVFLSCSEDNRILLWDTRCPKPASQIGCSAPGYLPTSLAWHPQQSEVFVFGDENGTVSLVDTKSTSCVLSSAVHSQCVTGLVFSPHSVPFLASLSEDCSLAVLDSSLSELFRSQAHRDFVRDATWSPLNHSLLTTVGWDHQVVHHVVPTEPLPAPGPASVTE

CON=c1nc[nH]c2c1ccn2[C@@H]1O[C@H]([C@H](O)c2ccc(Cl)c(Cl)c2)[C@@H](O)[C@H]1O.Cl [PRT382, (2 R,3 S,4 R,5 R)-2-[(R)-(3,4-dichlorophenyl)-hydroxy-methyl]-5-[(4Z)-4-methoxyimino-1H-pyrrolo[2,3-d]pyrimidin-7-yl]tetrahydrofuran-3,4-diol hydrochloride]
peak plasma level ([1]; 10 mg/kg oral): 12 µM | DNAUC ([1]; 10 mg/kg): 1180 kg·ng·h/mL/mg | blood concentration at time point 0.25 ([1]; 10 mg/kg): 2530 | blood concentration at time point 0.5 ([1]; 10 mg/kg): 3240 | blood concentration at time point 1 h ([1]; 10 mg/kg): 2973 | blood concentration at time point 2 h ([1]; 10 mg/kg): 1733 | blood concentration at time point 4 h ([1]; 10 mg/kg): 908 | blood concentration at time point 8 h ([1]; 10 mg/kg): 530 | blood concentration at time point 12 h ([1]; 10 mg/kg): 46 | blood concentration at time point 24 h ([1]; 10 mg/kg): 0 ng/mL | peak plasma level ([1]; 30 mg/kg oral): 32 µM | DNAUC ([1]; 30 mg/kg): 763 kg·ng·h/mL/mg | blood concentration at time point 0.25 ([1]; 30 mg/kg): 3753 | blood concentration at time point 0.5 ([1]; 30 mg/kg): 4560 | blood concentration at time point 1 h ([1]; 30 mg/kg): 4613 | blood concentration at time point 2 h ([1]; 30 mg/kg): 2990 | blood concentration at time point 4 h ([1]; 30 mg/kg): 2027 | blood concentration at time point 8 h ([1]; 30 mg/kg): 1350 | blood concentration at time point 12 h ([1]; 30 mg/kg): 138 | blood concentration at time point 24 h ([1]; 30 mg/kg): 0 ng/mL | peak plasma level ([1]; 100 mg/kg oral): 75 µM | DNAUC ([1]; 100 mg/kg): 1700 kg·ng·h/mL/mg | blood concentration at time point 0.25 ([1]; 100 mg/kg): 20267 | blood concentration at time point 0.5 ([1]; 100 mg/kg): 25300 | blood concentration at time point 1 h ([1]; 100 mg/kg): 25500 | blood concentration at time point 2 h ([1]; 100 mg/kg): 21367 | blood concentration at time point 4 h ([1]; 100 mg/kg): 16300 | blood concentration at time point 8 h ([1]; 100 mg/kg): 10253 | blood concentration at time point 12 h ([1]; 100 mg/kg): 1753 | blood concentration at time point 24 h ([1]; 100 mg/kg): 7 ng/mL | AUC ([1]; 10 mg/kg): 11700 ng·h/mL | AUC(0-t) ([1]; 10 mg/kg): 11600 ng·h/mL | Cmax ([1]; 10 mg/kg): 3240 ng/mL | MRT ([1]; 10 mg/kg): 3.34 h | Tmax ([1]; 10 mg/kg): 0.5 h | half-life ([1]; 10 mg/kg): 1.87 h | AUC ([1]; 30 mg/kg): 22900 ng·h/mL | AUC(0-t) ([1]; 30 mg/kg): 22300 ng·h/mL | Cmax ([1]; 30 mg/kg): 4670 ng/mL | MRT ([1]; 30 mg/kg): 4 h | Tmax ([1]; 30 mg/kg): 0.83 h | half-life ([1]; 30 mg/kg): 2.25 h | AUC ([1]; 100 mg/kg): 170000 ng·h/mL | AUC(0-t) ([1]; 100 mg/kg): 170000 ng·h/mL | Cmax ([1]; 100 mg/kg): 25800 ng/mL | MRT ([1]; 100 mg/kg): 4.6 h | Tmax ([1]; 100 mg/kg): 0.67 h | half-life ([1]; 100 mg/kg): 1.53 h | IC50 [2]: 0.0028 µM | clearance [3]: low | bioavailability ([3]; dog, in vivo, po, read-out: oral bioavailability (F%)): 70 to 80% | clearance [4]: low | bioavailability ([4]; mouse, in vivo, po, read-out: oral bioavailability (F%)): 70 to 80% | Normalized A490 (primary CLL cells; PRT382 0.001 μM): 3.307 and 4.074 and 2.806 and 1.916 and 4.967 and 4.310 and 1.926 and 2.473 and 1.595 and 1.924 | Normalized A490 (primary CLL cells; PRT382 0.010 μM): 3.718 and 3.941 and 2.668 and 1.775 and 4.704 and 4.675 and 1.969 and 2.468 and 1.587 | Normalized A490 (primary CLL cells; PRT382 0.100 μM): 3.022 and 3.734 and 2.874 and 1.799 and 4.461 and 3.405 and 1.501 and 2.532 and 1.373 | Normalized A490 (primary CLL cells; PRT382 1.000 μM): 2.691 and 3.811 and 2.801 and 1.761 and 4.387 and 2.568 and 1.496 and 2.524 and 1.293 | Normalized A490 (primary CLL cells; PRT382 10.000 μM): 1.699 and 2.509 and 3.622 and 2.474 and 1.561 and 4.249 and 2.269 and 1.136 and 2.309 | proliferative potential of primary CLL cells (primary CLL cells; n = 12 IGHV-U patients, 72 h, with and without TLR9 stimulation (CpG)): Dose-dependent decrease in proliferation; also recorded: dose-dependent reduction in proliferative potential | proliferation relative to DMSO (=1), Figure 6F ([5]; CCMCL, 1e-9 M): 0.94 | proliferation relative to DMSO (=1), Figure 6F ([5]; CCMCL, 1e-8 M): 0.93 | proliferation relative to DMSO (=1), Figure 6F ([5]; CCMCL, 1e-7 M): 0.55 | proliferation relative to DMSO (=1), Figure 6F ([5]; CCMCL, 1e-6 M): 0.13 | proliferation relative to DMSO (=1), Figure 6F ([5]; CCMCL, 1e-5 M): 0.12 | IC50 ([5]; earlier manuscript text quoted in the peer review file): 0.01 to 0.1 µM | IC50 [5]: 0.01 to 0.5 µM | proliferation relative to DMSO (=1), Figure 6F ([5]; Jeko, 1e-9 M): 1 | proliferation relative to DMSO (=1), Figure 6F ([5]; Jeko, 1e-8 M): 0.98 | proliferation relative to DMSO (=1), Figure 6F ([5]; Jeko, 1e-7 M): 0.96 | proliferation relative to DMSO (=1), Figure 6F ([5]; Jeko, 1e-6 M): 0.13 | proliferation relative to DMSO (=1), Figure 6F ([5]; Jeko, 1e-5 M): 0.14 | proliferation relative to DMSO (=1), Figure 6F ([5]; Pfeiffer, 1e-9 M): 0.99 | proliferation relative to DMSO (=1), Figure 6F ([5]; Pfeiffer, 1e-8 M): 1 | proliferation relative to DMSO (=1), Figure 6F ([5]; Pfeiffer, 1e-7 M): 0.76 | proliferation relative to DMSO (=1), Figure 6F ([5]; Pfeiffer, 1e-6 M): 0.18 | proliferation relative to DMSO (=1), Figure 6F ([5]; Pfeiffer, 1e-5 M): 0.22 | proliferation relative to DMSO (=1), Figure 6F ([5]; SU-DHL-4, 1e-9 M): 1 | proliferation relative to DMSO (=1), Figure 6F ([5]; SU-DHL-4, 1e-8 M): 1 | proliferation relative to DMSO (=1), Figure 6F ([5]; SU-DHL-4, 1e-7 M): 0.79 | proliferation relative to DMSO (=1), Figure 6F ([5]; SU-DHL-4, 1e-6 M): 0.13 | proliferation relative to DMSO (=1), Figure 6F ([5]; SU-DHL-4, 1e-5 M): 0.15 | clearance [6]: low | bioavailability ([6]; rat, in vivo, po, read-out: oral bioavailability (F%)): 70 to 80% | IC50 (JVM-2): 0.01 µM | IC50 (CCMCL-1): 0.014 µM
